Common to all, as to format: functional
Assay [1] has as its system Proteus mirabilis. The assay can be described thus: Antibacterial activity against Proteus mirabilis B2 after 18 hrs by Etest method.
In assay [2] the test system is Proteus mirabilis. The assay can be described thus: Antibacterial activity against Proteus mirabilis M 44 mutant after 18 hrs by Etest method.
Assay [3] deals with Proteus mirabilis. Briefly: Antibacterial activity against Proteus mirabilis M 48 mutant after 18 hrs by Etest method.
The subject of assay [4] is Proteus mirabilis. Briefly: Antibacterial activity against Proteus mirabilis M 55 mutant after 18 hrs by Etest method.
Assay [5] concerns Proteus mirabilis. The assay can be described thus: Antibacterial activity against Proteus mirabilis NP14 after 18 hrs by Etest method.
Assay [6] concerns Proteus mirabilis. Briefly: Antibacterial activity against Proteus mirabilis M 19 mutant after 18 hrs by Etest method.
Assay [7] concerns Proteus mirabilis. Briefly: Antibacterial activity against Proteus mirabilis M 21 mutant after 18 hrs by Etest method.
Assay [8] has as its system Proteus mirabilis. Briefly: Antibacterial activity against Proteus mirabilis M 23 mutant after 18 hrs by Etest method.
Assay [9] relates to Proteus mirabilis. The assay can be described thus: Antibacterial activity against Proteus mirabilis NP37 after 18 hrs by Etest method.
For assay [10], the system named is Proteus mirabilis. Briefly: Antibacterial activity against Proteus mirabilis M 29 mutant after 18 hrs by Etest method.
The test system of assay [11] is Proteus mirabilis. The assay can be described thus: Antibacterial activity against Proteus mirabilis M 31 mutant after 18 hrs by Etest method.
For assay [12], the system named is Proteus mirabilis. The assay can be described thus: Antibacterial activity against Proteus mirabilis NP43 after 18 hrs by Etest method.
Assay [13] relates to Proteus mirabilis. The assay can be described thus: Antibacterial activity against Proteus mirabilis M 12 mutant after 18 hrs by Etest method.
For assay [14], the system named is Proteus mirabilis. The assay can be described thus: Antibacterial activity against Proteus mirabilis M 17 mutant after 18 hrs by Etest method.
Assay [15] concerns Proteus mirabilis. Briefly: Antibacterial activity against Proteus mirabilis NP55 after 18 hrs by Etest method.
The test system of assay [16] is Proteus mirabilis. The assay can be described thus: Antibacterial activity against Proteus mirabilis M 35 mutant after 18 hrs by Etest method.
The subject of assay [17] is Proteus mirabilis. The assay can be described thus: Antibacterial activity against Proteus mirabilis M 40 mutant after 18 hrs by Etest method.
Assay [18] deals with Proteus mirabilis. Briefly: Antibacterial activity against Proteus mirabilis M 42 mutant after 18 hrs by Etest method.
Assay [19] concerns Proteus mirabilis. Briefly: Antibacterial activity against Proteus mirabilis M 26 mutant after 18 hrs by Etest method.
The next assay has as its system Escherichia coli. Briefly: Antibacterial activity against Escherichia coli 10418 after 18 hrs by Etest method.

For orientation: MIC means the smallest concentration in the dilution series that meets the test's criterion for growth inhibition. A low value points to greater potency.

Values after ≈ are worked out from the molar mass of the structure shown.

For `O=C(O)c1cn(C2CC2)c2cc(N3CCNCC3)c(F)cc2c1=O` [CIPROFLOXACIN], the MIC with Proteus mirabilis [1] (B2, 18 h) worked out at 0.02 µg/mL (≈ 0.0604 µM); in the assay on Proteus mirabilis [2] (M 44, 18 h), 0.03 µg/mL (≈ 0.0905 µM); in the assay on Proteus mirabilis [3] (M 48, 18 h) it was 0.02 µg/mL (≈ 0.0604 µM); in the assay with Proteus mirabilis [4] (M 55, 18 h), 0.02 µg/mL (≈ 0.0604 µM); with Proteus mirabilis [5] (NP14, 18 h), 0.06 µg/mL (≈ 0.181 µM); in the assay with Proteus mirabilis [6] (M 19, 18 h) it was 0.05 µg/mL (≈ 0.151 µM). Also, the MIC against Proteus mirabilis [7] (M 21, 18 h) was 0.05 µg/mL (≈ 0.151 µM); in the assay on Proteus mirabilis [8] (M 23, 18 h) it was 0.05 µg/mL (≈ 0.151 µM); in the assay on Proteus mirabilis [9] (NP37, 18 h) it was 0.02 µg/mL (≈ 0.0604 µM); against Proteus mirabilis [10] (M 29, 18 h), 0.008 µg/mL (≈ 0.0241 µM); with Proteus mirabilis [11] (M 31, 18 h), 0.008 µg/mL (≈ 0.0241 µM); in the assay with Proteus mirabilis [12] (NP43, 18 h), 0.01 µg/mL (≈ 0.0302 µM). The MIC against Proteus mirabilis [13] (M 12, 18 h) was determined as 0.006 µg/mL (≈ 0.0181 µM); with Proteus mirabilis [14] (M 17, 18 h), 0.006 µg/mL (≈ 0.0181 µM); against Proteus mirabilis [15] (NP55, 18 h), 0.016 µg/mL (≈ 0.0483 µM); in the assay with Proteus mirabilis [16] (M 35, 18 h), 0.016 µg/mL (≈ 0.0483 µM); in the assay with Proteus mirabilis [17] (M 40, 18 h) it was 0.012 µg/mL (≈ 0.0362 µM); in the assay on Proteus mirabilis [18] (M 42, 18 h), 0.016 µg/mL (≈ 0.0483 µM). Moreover, the MIC in the assay on Proteus mirabilis [19] (M 26, 18 h) was 0.012 µg/mL (≈ 0.0362 µM).

As for `O=C1CN(/N=C/c2ccc([N+](=O)[O-])o2)C(=O)N1` [NITROFURANTOIN], the MIC in the assay with Escherichia coli (Escherichia coli, 10418, 18 h) was determined as 2 µg/mL (≈ 8.4 µM); in the assay with Proteus mirabilis [1] (B2, 18 h) it was 64 µg/mL (≈ 269 µM); against Proteus mirabilis [2] (M 44, 18 h) it was 32 µg/mL (≈ 134 µM); with Proteus mirabilis [3] (M 48, 18 h) it was 24 µg/mL (≈ 101 µM); in the assay with Proteus mirabilis [4] (M 55, 18 h) it was 48 µg/mL (≈ 202 µM); with Proteus mirabilis [5] (NP14, 18 h) it was 32 µg/mL (≈ 134 µM). Besides, the MIC against Proteus mirabilis [6] (M 19, 18 h) worked out at 32 µg/mL (≈ 134 µM); against Proteus mirabilis [7] (M 21, 18 h) it was 48 µg/mL (≈ 202 µM); in the assay on Proteus mirabilis [8] (M 23, 18 h), 32 µg/mL (≈ 134 µM); with Proteus mirabilis [9] (NP37, 18 h) it was 24 µg/mL (≈ 101 µM); in the assay on Proteus mirabilis [10] (M 29, 18 h), 16 µg/mL (≈ 67.2 µM); with Proteus mirabilis [11] (M 31, 18 h), 24 µg/mL (≈ 101 µM). The MIC in the assay with Proteus mirabilis [12] (NP43, 18 h) was determined as 48 µg/mL (≈ 202 µM); with Proteus mirabilis [13] (M 12, 18 h), 12 µg/mL (≈ 50.4 µM); in the assay with Proteus mirabilis [14] (M 17, 18 h), 12 µg/mL (≈ 50.4 µM); with Proteus mirabilis [15] (NP55, 18 h) it was 64 µg/mL (≈ 269 µM); in the assay with Proteus mirabilis [16] (M 35, 18 h), 32 µg/mL (≈ 134 µM); against Proteus mirabilis [17] (M 40, 18 h) it was 64 µg/mL (≈ 269 µM). Besides, the MIC in the assay on Proteus mirabilis [18] (M 42, 18 h) turned out to be 48 µg/mL (≈ 202 µM); in the assay on Proteus mirabilis [19] (M 26, 18 h), 24 µg/mL (≈ 101 µM).

For `CCn1cc(C(=O)O)c(=O)c2ccc(C)nc21` [NALIDIXIC ACID], the MIC against Escherichia coli (Escherichia coli, 10418, 18 h) was 0.38 µg/mL (≈ 1.64 µM); in the assay with Proteus mirabilis [1] (B2, 18 h) it was 2 µg/mL (≈ 8.61 µM); against Proteus mirabilis [2] (M 44, 18 h), 1.5 µg/mL (≈ 6.46 µM); in the assay on Proteus mirabilis [3] (M 48, 18 h) it was 1.5 µg/mL (≈ 6.46 µM); in the assay on Proteus mirabilis [4] (M 55, 18 h), 1.5 µg/mL (≈ 6.46 µM); against Proteus mirabilis [5] (NP14, 18 h) it was 3 µg/mL (≈ 12.9 µM). In addition, the MIC came out at 2 µg/mL (≈ 8.61 µM) in the assay on Proteus mirabilis [6] (M 19, 18 h); 3 µg/mL (≈ 12.9 µM) against Proteus mirabilis [7] (M 21, 18 h); 2 µg/mL (≈ 8.61 µM) against Proteus mirabilis [8] (M 23, 18 h); 4 µg/mL (≈ 17.2 µM) in the assay on Proteus mirabilis [9] (NP37, 18 h); 2 µg/mL (≈ 8.61 µM) in the assay with Proteus mirabilis [10] (M 29, 18 h); 1.5 µg/mL (≈ 6.46 µM) in the assay on Proteus mirabilis [11] (M 31, 18 h). The MIC came out at 2 µg/mL (≈ 8.61 µM) against Proteus mirabilis [12] (NP43, 18 h); 1.5 µg/mL (≈ 6.46 µM) against Proteus mirabilis [13] (M 12, 18 h); 2 µg/mL (≈ 8.61 µM) against Proteus mirabilis [14] (M 17, 18 h); 3 µg/mL (≈ 12.9 µM) in the assay on Proteus mirabilis [15] (NP55, 18 h); 2 µg/mL (≈ 8.61 µM) in the assay with Proteus mirabilis [16] (M 35, 18 h); 1.5 µg/mL (≈ 6.46 µM) against Proteus mirabilis [17] (M 40, 18 h). The minimal inhibitory concentration (MIC) came to 2 µg/mL (≈ 8.61 µM) in the assay on Proteus mirabilis [18] (M 42, 18 h) and 1.5 µg/mL (≈ 6.46 µM) with Proteus mirabilis [19] (M 26, 18 h).

Take GENTAMICIN: the MIC in the assay on Escherichia coli is 0.09 µg/mL; against Proteus mirabilis [1], 0.38 µg/mL; against Proteus mirabilis [2], 0.38 µg/mL; with Proteus mirabilis [3], 0.25 µg/mL; with Proteus mirabilis [4] it was 0.38 µg/mL; with Proteus mirabilis [5] it was 0.13 µg/mL. Also, the MIC in the assay on Proteus mirabilis [6] was found to be 0.13 µg/mL; with Proteus mirabilis [7], 0.13 µg/mL; in the assay with Proteus mirabilis [8] it was 0.09 µg/mL; against Proteus mirabilis [9], 0.38 µg/mL; with Proteus mirabilis [10], 0.19 µg/mL; with Proteus mirabilis [11], 0.13 µg/mL. In addition, the MIC against Proteus mirabilis [12] was determined as 0.1 µg/mL; in the assay with Proteus mirabilis [13], 0.06 µg/mL; with Proteus mirabilis [14], 0.06 µg/mL; in the assay on Proteus mirabilis [15], 0.1 µg/mL; against Proteus mirabilis [16] it was 0.25 µg/mL; in the assay on Proteus mirabilis [17] it was 0.13 µg/mL. The minimal inhibitory concentration (MIC) with Proteus mirabilis [18] is 0.25 µg/mL; against Proteus mirabilis [19], 0.13 µg/mL.

In the case of `CCn1cc(C(=O)O)c(=O)c2cc(F)c(N3CCNCC3)cc21` [NORFLOXACIN], the MIC against Escherichia coli (Escherichia coli, 10418, 18 h) is 0.02 µg/mL (≈ 0.0626 µM); against Proteus mirabilis [1] (B2, 18 h), 0.05 µg/mL (≈ 0.157 µM); against Proteus mirabilis [2] (M 44, 18 h), 0.05 µg/mL (≈ 0.157 µM); against Proteus mirabilis [3] (M 48, 18 h), 0.05 µg/mL (≈ 0.157 µM); in the assay with Proteus mirabilis [4] (M 55, 18 h), 0.05 µg/mL (≈ 0.157 µM); against Proteus mirabilis [5] (NP14, 18 h) it was 0.25 µg/mL (≈ 0.783 µM). Besides, the MIC against Proteus mirabilis [6] (M 19, 18 h) amounted to 0.19 µg/mL (≈ 0.595 µM); in the assay on Proteus mirabilis [7] (M 21, 18 h), 0.19 µg/mL (≈ 0.595 µM); in the assay with Proteus mirabilis [8] (M 23, 18 h), 0.19 µg/mL (≈ 0.595 µM); with Proteus mirabilis [9] (NP37, 18 h), 0.05 µg/mL (≈ 0.157 µM); against Proteus mirabilis [10] (M 29, 18 h), 0.03 µg/mL (≈ 0.0939 µM); in the assay with Proteus mirabilis [11] (M 31, 18 h), 0.02 µg/mL (≈ 0.0626 µM). The MIC in the assay on Proteus mirabilis [12] (NP43, 18 h) worked out at 0.05 µg/mL (≈ 0.157 µM); in the assay on Proteus mirabilis [13] (M 12, 18 h), 0.02 µg/mL (≈ 0.0626 µM); in the assay with Proteus mirabilis [14] (M 17, 18 h), 0.02 µg/mL (≈ 0.0626 µM); in the assay on Proteus mirabilis [15] (NP55, 18 h) it was 0.05 µg/mL (≈ 0.157 µM); against Proteus mirabilis [16] (M 35, 18 h), 0.03 µg/mL (≈ 0.0939 µM); against Proteus mirabilis [17] (M 40, 18 h), 0.03 µg/mL (≈ 0.0939 µM). Moreover, the MIC in the assay on Proteus mirabilis [18] (M 42, 18 h) was 0.03 µg/mL (≈ 0.0939 µM); against Proteus mirabilis [19] (M 26, 18 h) it was 0.03 µg/mL (≈ 0.0939 µM).

The record behind these values is ChEMBL document CHEMBL1255267, “Reduced Susceptibility of Proteus mirabilis to triclosan” (2008).
